Laboratory results as given in patent publication US9725449B2, “Tricyclic compounds as anticancer agents” (BRISTOL-MYERS SQUIBB COMPANY, priority 2015, dated 2017).
pIC50: −log10 of the molar value.

target: BRD4 (Homo sapiens, UniProt O60885); test: Time resolved fluorescence resonance energy transfer (TR-FRET) binding assay, bromodomain BRD4; conditions: one of the FRET assays described; read-out: FRET BRD4 IC50

[2H]C([2H])([2H])c1nnn(C)c1-c1cnc2c3cnc(C(C)(C)O)cc3n([C@H](c3ccccc3)C3CCOCC3)c2c1 [Example 284, 2-{5-[4-(^2H3)Methyl-1-methyl-1H-1,2,3-triazol-5-yl]-8-[(S)-oxan-4-yl(phenyl)methyl]-3,8,12-triazatricyclo[7.4.0.0^2,^7]trideca-1(9),2(7),3,5,10,12-hexaen-11-yl}propan-2-ol] and [2H]C([2H])([2H])c1nnn(C)c1-c1cnc2c3cnc(Cl)cc3n([C@H](c3ccccc3F)C3CCOCC3)c2c1 [Example 315] cannot be ordered by pIC50: > 9.00 for the first, > 8.00 for the second.

Cc1nnn(C)c1-c1cnc2c3ccc(-c4cnn(C(C)C)c4)nc3n([C@H](c3ccccc3)C3CCOCC3)c2c1 [Example 149, 5-(Dimethyl-1H-1,2,3-triazol-5-yl)-8-[(S)-oxan-4-yl(phenyl)methyl]-11-[1-(propan-2-yl)-1H-pyrazol-4-yl]-3,8,10-triazatricyclo[7.4.0.0^2,^7]trideca-1(13),2(7),3,5,9,11-hexaene] and Cc1nnn(C)c1-c1cnc2c3cncc(Cl)c3n([C@H](c3ccccc3)C3CCOCC3)c2c1 [Example 34, 10-Chloro-5-(dimethyl-1H-1,2,3-triazol-5-yl)-8-[(S)-oxan-4-yl(phenyl)methyl]-3,8,12-triazatricyclo[7.4.0.0^2,^7]trideca-1(13),2(7),3,5,9,11-hexaene] cannot be ordered by pIC50: > 8.00 for the first, > 8.00 for the second.

[2H]C([2H])([2H])c1nnn(C)c1-c1cnc2c3c(OCC(F)F)ncc(S(C)(=O)=O)c3n([C@H](c3ccccc3)C3CCOCC3)c2c1 [Example 112, 13-(2,2-Difluoroethoxy)-10-methanesulfonyl-5-[4-(^2H3)methyl-1-methyl-1H-1,2,3-triazol-5-yl]-8-[(S)-oxan-4-yl(phenyl)methyl]-3,8,12-triazatricyclo[7.4.0.0^2,^7]trideca-1(13),2(7),3,5,9,11-hexaene] and [2H]C([2H])([2H])c1nnn(C)c1-c1cnc2c3c(OCCCF)ncc(S(C)(=O)=O)c3n([C@H](c3ccccc3F)C3CCOCC3)c2c1 [Example 85, 8-[(S)-(2-Fluorophenyl)(oxan-4-yl)methyl]-13-(3-fluoropropoxy)-10-methanesulfonyl-5-[4-(^2H3)methyl-1-methyl-1H-1,2,3-triazol-5-yl]-3,8,12-triazatricyclo[7.4.0.0^2,^7]trideca-1(13),2(7),3,5,9,11-hexaene] cannot be ordered by pIC50: > 9.00 for the first, > 9.00 for the second.

Cc1nnn(C)c1-c1cnc2c3c(N(C)C)ncc(Cl)c3n([C@H](c3ccccc3)C3CCOCC3)c2c1 [Example 41, 10-Chloro-5-(dimethyl-1H-1,2,3-triazol-5-yl)-N,N-dimethyl-8-[(S)-oxan-4-yl(phenyl)methyl]-3,8,12-triazatricyclo[7.4.0.0^2,^7]trideca-1(13),2(7),3,5,9,11-hexaen-13-amine] and Cc1nnn(C)c1-c1cnc2c3c(F)ncc(Cl)c3n([C@H](c3ccccc3)C3CCOCC3)c2c1 [Example 37, 10-Chloro-5-(dimethyl-1H-1,2,3-triazol-5-yl)-13-fluoro-8-[(S)-oxan-4-yl(phenyl)methyl]-3,8,12-triazatricyclo[7.4.0.0^2,^7]trideca-1(13),2(7),3,5,9,11-hexaene] cannot be ordered by pIC50: > 9.00 for the first, > 8.00 for the second.

[2H]C([2H])([2H])c1nnn(C)c1-c1cnc2c3c(OC)nc(C(C)=O)cc3n([C@@H](c3ncccc3F)C3CCOCC3)c2c1 [Example 310, 1-{8-[(R)-(3-Fluoropyridin-2-yl)(oxan-4-yl)methyl]-13-methoxy-5-[4-(^2H3)methyl-1-methyl-1H-1,2,3-triazol-5-yl]-3,8,12-triazatricyclo[7.4.0.0^2,^7]trideca-1(9),2(7),3,5,10,12-hexaen-11-yl}ethan-1-one] and [2H]C([2H])([2H])c1nnn(C)c1-c1cnc2c3c(OC)ncc(S(C)(=O)=O)c3n(C(c3ncccc3F)C3CCOCC3)c2c1 (stereo not shown) [Example 65, 8-[(3-Fluoropyridin-2-yl)(oxan-4-yl)methyl]-10-methanesulfonyl-13-methoxy-5-[4-(^2H3)methyl-1-methyl-1H-1,2,3-triazol-5-yl]-3,8,12-triazatricyclo[7.4.0.0^2,^7]trideca-1(13),2(7),3,5,9,11-hexaene] cannot be ordered by pIC50: > 8.00 for the first, > 5.82 for the second.

[2H]C([2H])([2H])c1nnn(C)c1-c1cnc2c3c(OCC)ncc(S(C)(=O)=O)c3n(C(c3ncccc3F)C3CCOCC3)c2c1 (stereo not shown) [Example 69, 13-Ethoxy-8-[(3-fluoropyridin-2-yl)(oxan-4-yl)methyl]-10-methanesulfonyl-5-[4-(^2H3)methyl-1-methyl-1H-1,2,3-triazol-5-yl]-3,8,12-triazatricyclo[7.4.0.0^2,^7]trideca-1(13),2(7),3,5,9,11-hexaene] and [2H]C([2H])([2H])c1nnn(C)c1-c1cnc2c3c(OCC)ncc(S(C)(=O)=O)c3n(C(c3ncccc3F)C3CCC(F)(F)CC3)c2c1 (stereo not shown) [Example 74, 8-[(4,4-Difluorocyclohexyl)(3-fluoropyridin-2-yl)methyl]-13-ethoxy-10-methanesulfonyl-5-[4-(^2H3)methyl-1-methyl-1H-1,2,3-triazol-5-yl]-3,8,12-triazatricyclo[7.4.0.0^2,^7]trideca-1(13),2(7),3,5,9,11-hexaene] cannot be ordered by pIC50: > 5.82 for the first, > 8.00 for the second.

[2H]C([2H])([2H])c1nnn(C)c1-c1cnc2c3ccc(N4CCN(C(C)(C)C)CC4)nc3n([C@H](c3ccccc3)C3CCOCC3)c2c1 [Example 152, 11-(4-tert-Butylpiperazin-1-yl)-5-[4-(^2H3)methyl-1-methyl-1H-1,2,3-triazol-5-yl]-8-[(S)-oxan-4-yl(phenyl)methyl]-3,8,10-triazatricyclo[7.4.0.0^2,^7]trideca-1(9),2(7),3,5,10,12-hexaene] and [2H]C([2H])([2H])c1nnn(C)c1-c1cnc2c3ccc(N4CCN(CC(F)(F)F)CC4)nc3n([C@H](c3ccccc3)C3CCOCC3)c2c1 [Example 154, 5-[4-(^2H3)Methyl-1-methyl-1H-1,2,3-triazol-5-yl]-8-[(S)-oxan-4-yl(phenyl)methyl]-11-[4-(2,2,2-trifluoroethyl)piperazin-1-yl]-3,8,10-triazatricyclo[7.4.0.0^2,^7]trideca-1(9),2(7),3,5,10,12-hexaene] cannot be ordered by pIC50: > 8.00 for the first, > 8.00 for the second.

[2H]C([2H])([2H])c1nnn(C)c1-c1cnc2c3ccc(-c4c(C([2H])([2H])[2H])nnn4C)nc3n(C(c3ncccc3F)C3CCOCC3)c2c1 (stereo not shown) [Example 248, 8-[(3-Fluoropyridin-2-yl)(oxan-4-yl)methyl]-5,11-bis[4-(^2H3)methyl-1-methyl-1H-1,2,3-triazol-5-yl]-3,8,10-triazatricyclo[7.4.0.0^2,^7]trideca-1(13),2(7),3,5,9,11-hexaene] and [2H]C([2H])([2H])c1nnn(C)c1-c1cnc2c3ccc(S(C)(=O)=O)nc3n([C@H](c3ccccc3F)C3CCOCC3)c2c1 [Example 235, 8-[(S)-(2-Fluorophenyl)(oxan-4-yl)methyl]-11-methanesulfonyl-5-[4-(^2H3)methyl-1-methyl-1H-1,2,3-triazol-5-yl]-3,8,10-triazatricyclo[7.4.0.0^2,^7]trideca-1(13),2(7),3,5,9,11-hexaene] cannot be ordered by pIC50: > 8.00 for the first, > 8.00 for the second.

Cc1noc(C)c1-c1cnc2c3cnc(Cl)cc3n(C(c3ccc(Cl)cn3)C3CCOCC3)c2c1 (single isomer, unassigned) [Example 328] and COc1ncc(S(C)(=O)=O)c2c1c1ncc(-c3c(C)noc3C)cc1n2[C@H](c1ccccc1)C1CCOCC1 [Example 45, 5-(Dimethyl-1,2-oxazol-4-yl)-10-methanesulfonyl-13-methoxy-8-[(S)-oxan-4-yl(phenyl)methyl]-3,8,12-triazatricyclo[7.4.0.0^2,^7]trideca-1(13),2(7),3,5,9,11-hexaene] cannot be ordered by pIC50: > 8.00 for the first, > 9.00 for the second.

Cc1nnn(C)c1-c1cnc2c3cnc(C(C)(C)O)cc3n([C@H](c3ncccc3F)C3CCOCC3)c2c1 [Example 339] and Cc1nnn(C)c1-c1cnc2c3ccnc(F)c3n([C@H](c3ccccc3F)C3CCOCC3)c2c1 [Example 29, 5-(Dimethyl-1H-1,2,3-triazol-5-yl)-10-fluoro-8-[(S)-(2-fluorophenyl)(oxan-4-yl)methyl]-3,8,11-triazatricyclo[7.4.0.0^2,^7]trideca-1(13),2(7),3,5,9,11-hexaene] cannot be ordered by pIC50: > 8.00 for the first, > 9.00 for the second.

[2H]C([2H])([2H])c1nnn(C)c1-c1cnc2c3c(N(C)CC)nccc3n([C@H](c3ccccc3)C3CCOCC3)c2c1 [Example 132, N-Ethyl-N-methyl-5-[4-(^2H3)methyl-1-methyl-1H-1,2,3-triazol-5-yl]-8-[(S)-oxan-4-yl(phenyl)methyl]-3,8,12-triazatricyclo[7.4.0.0^2,^7]trideca-1(13),2(7),3,5,9,11-hexaen-13-amine] and Cc1nnn(C)c1-c1cnc2c3ccnc(NCCO)c3n([C@H](c3ccccc3)C3CCOCC3)c2c1 [Example 11, 2-{[5-(Dimethyl-1H-1,2,3-triazol-5-yl)-8-[(S)-oxan-4-yl(phenyl)methyl]-3,8,11-triazatricyclo[7.4.0.0^2,^7]trideca-1(13),2(7),3,5,9,11-hexaen-10-yl]amino}ethan-1-ol] cannot be ordered by pIC50: > 9.00 for the first, > 8.00 for the second.

[2H]C([2H])([2H])c1nnn(C)c1-c1cnc2c3ccc(N4CCS(=O)(=O)CC4)nc3n([C@H](c3ccccc3)C3CCOCC3)c2c1 [Example 185, 4-{5-[4-(^2H3)Methyl-1-methyl-1H-1,2,3-triazol-5-yl]-8-[(S)-oxan-4-yl(phenyl)methyl]-3,8,10-triazatricyclo[7.4.0.0^2,^7]trideca-1(9),2(7),3,5,10,12-hexaen-11-yl}-1λ^6,4-thiomorpholine-1,1-dione] and Cc1nnn(C)c1-c1cnc2c3ccc(N4CCC(C(=O)N(C)C)CC4)nc3n([C@H](c3ccccc3F)C3CCOCC3)c2c1 [Example 271, 1-[5-(Dimethyl-1H-1,2,3-triazol-5-yl)-8-[(S)-(2-fluorophenyl)(oxan-4-yl)methyl]-3,8,10-triazatricyclo[7.4.0.0^2,^7]trideca-1(13),2(7),3,5,9,11-hexaen-11-yl]-N,N-dimethylpiperidine-4-carboxamide] cannot be ordered by pIC50: > 8.00 for the first, > 8.00 for the second.

In the case of COc1ncc(S(C)(=O)=O)c2c1c1ncc(-c3c(C)noc3C)cc1n2C(c1ccccc1)C1CCC(F)(F)CC1 (single isomer, unassigned) [Example 88, 8-[(4,4-Difluorocyclohexyl)(phenyl)methyl]-5-(dimethyl-1,2-oxazol-4-yl)-10-methanesulfonyl-13-methoxy-3,8,12-triazatricyclo[7.4.0.0^2,^7]trideca-1(13),2(7),3,5,9,11-hexaene], the pIC50 was > 8.00.
